Like-named read-outs stand apart in the source and are kept apart here.
Assays:
5-HT2A receptor = target: T1, 5-HT2A receptor (Rattus norvegicus, UniProt P14842); test: cell-based
T1 construct: Eight strips of tissue (0.5 cm long) were cut. and were mounted in 10 ml organ baths; tissue Charles River Laboratories; host or cells: rat aorta strips, endothelium removed
Protocol: The rat aorta (approximately 7 cm) was isolated and removed from the animal (male Sprague Dawley rat, Charles River Laboratories, Hollister, Calif.). The endothelium was removed mechanically. Eight strips of tissue (0.5 cm long) were cut. and were mounted in 10 ml organ baths kept at 37° C. with Krebs solution (composition in mM: NaCl (118.2), KCl (4.6), CaCl2 (2.5), MgSO4 (1.2), KH2PO4 (1.2), NaHCO3 (24.8) and dextrose (10.0)) that was constantly aerated with carbogen gas (95% O2/5% CO2) to obtain a pH of 7.4. The tissues were subjected to a resting tension of 2 g (3 times, 15 minutes apart, equilibrated in Krebs solution). The tissues were then washed 15 minutes later. Ten minutes later, the tissues were then exposed to 0.1 μM phenylephrine. At the maximal effect, 1 μM acetylcholine was added to confirm the absence of endothelium and then washed twice, 2 minutes apart.
Contractions were recorded as changes in tension from baseline and expressed as a percentage of the maximum response of the agonist (5-HT) concentration-effect curve. Agonist concentration-response curves were fitted using a nonlinear iterative fitting program (GraphPad Prism) using the relationship of Parker and Waud (Parker, R. B. and Waud, D. R. (1971). Pharmacological estimation of drug-receptor dissociation constants. Statistical evaluation. I. Agonists. J. Pharmacol. Exp. Ther., 177, 1-12). Agonist potency was expressed as EC50 (molar concentration of agonist producing 50% of the maximum response). Concentration-ratios (CRs) were determined from EC50 values in the presence and absence of antagonist and antagonist affinity estimates (pKB and pA2 values) were determined. All data are expressed as mean±s.e. mean.

[1] = target: T2, human D2s dopamine receptors (Homo sapiens, UniProt P14416); test: hD2S receptor radioligand binding ([3H]spiperone); conditions: pKi reported on a scale of 1 through 5
T2 construct: expressed in transfected cells; host or cells: Chinese hamster ovary cells (membranes)
Protocol: (§1) Consistent with standard competition radioligand binding assays, the methodology was based on displacement of radioligand from tissues (or cell lines) bearing the receptor of interest (Cheng, Y. and Prusoff, W. H. (1973). Biochem. Pharmacol. 22, 3099-3108). The measurements were based on the binding of a single concentration of radiolabeled ligand in the presence of various concentrations of unlabeled ligand.
(§2) Tissues (or cellular plasma membrane fractions) were incubated in the presence of radioligand at equilibrium and in the presence of a range of concentrations of the test compounds (which were non-radiolabeled), and the displaced radioligand was separated from the membranes by filtration. Nonspecific binding was assessed by measuring displacement of the radioligand in the presence of a compound known to block binding of the radioligand to the receptor. Finally, the concentration-response relationship for radioligand displacement (corrected for non-specific binding) was used to assess binding of the test compound to the receptor.

[2] = target: T3, human D2L dopamine receptors (Homo sapiens, UniProt P14416); test: hD2L receptor radioligand binding ([3H]spiperone); conditions: pKi reported on a scale of 1 through 5; read-out: D2L (pKi) (converted)
T3 construct: expressed in transfected cells; host or cells: insect Sf9 cells (membranes)
Protocol: as §1, §2

human 5HT1A receptors = target: T4, human 5HT1A receptors (Homo sapiens, UniProt P08908); test: h5-HT1A receptor radioligand binding ([3H]8OH-DPAT); conditions: pKi reported on a scale of 1 through 5
T4 construct: expressed in transfected cells; host or cells: Chinese hamster ovary cells (membranes)
T4 sequence (P08908 1-422): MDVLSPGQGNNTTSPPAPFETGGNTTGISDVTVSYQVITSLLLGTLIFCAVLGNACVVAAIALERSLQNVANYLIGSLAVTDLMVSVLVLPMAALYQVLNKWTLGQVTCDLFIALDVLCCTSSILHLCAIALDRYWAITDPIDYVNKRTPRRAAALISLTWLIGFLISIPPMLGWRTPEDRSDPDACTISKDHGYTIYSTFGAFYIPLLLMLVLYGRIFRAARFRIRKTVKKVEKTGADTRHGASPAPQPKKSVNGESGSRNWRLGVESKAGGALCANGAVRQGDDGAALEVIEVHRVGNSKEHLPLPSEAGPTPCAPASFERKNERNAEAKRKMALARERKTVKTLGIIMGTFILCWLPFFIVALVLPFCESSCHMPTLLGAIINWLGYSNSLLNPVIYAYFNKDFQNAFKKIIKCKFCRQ
Protocol: as §1, §2

human 5HT2C receptors = target: T5, human 5HT2C receptors (Homo sapiens, UniProt P28335); test: h5-HT2C receptor radioligand binding ([3H]Mesulergine); conditions: pKi reported on a scale of 1 through 5
T5 construct: expressed in transfected cells; host or cells: human embryo kidney cells (membranes)
T5 sequence (P28335 33-458): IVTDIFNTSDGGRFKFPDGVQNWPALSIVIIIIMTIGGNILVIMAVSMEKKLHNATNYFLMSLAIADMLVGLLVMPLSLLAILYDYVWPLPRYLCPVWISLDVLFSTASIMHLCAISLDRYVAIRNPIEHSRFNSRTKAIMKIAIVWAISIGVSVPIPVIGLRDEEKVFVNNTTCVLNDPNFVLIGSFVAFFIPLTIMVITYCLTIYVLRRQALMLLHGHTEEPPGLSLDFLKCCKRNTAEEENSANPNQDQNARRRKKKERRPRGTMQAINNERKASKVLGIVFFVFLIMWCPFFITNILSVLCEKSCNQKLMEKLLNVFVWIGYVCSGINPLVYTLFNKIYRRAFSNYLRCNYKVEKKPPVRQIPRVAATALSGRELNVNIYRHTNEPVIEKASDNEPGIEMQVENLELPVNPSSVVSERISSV
Protocol: The measurements were based on the binding of a single concentration of radiolabeled ligand in the presence of various concentrations of unlabeled ligand.
as §2

human M3 receptors = target: T6, human M3 receptors (Homo sapiens, UniProt P20309); test: hM3 receptor radioligand binding ([3H]NMS)
T6 construct: expressed in transfected cells; host or cells: Chinese hamster ovary cells (membranes)
Protocol: as §1, §2

human H1 receptors = target: T7, human H1 receptors (Homo sapiens, UniProt P35367); test: hH1 receptor radioligand binding ([3H]Pyrilamine); conditions: pKi reported on a scale of 1 through 5
T7 construct: expressed in transfected cells; host or cells: Chinese hamster ovary cells (membranes)
Protocol: as §1, §2

human 5HT7 receptors = target: T8, human 5HT7 receptors (Homo sapiens, UniProt P34969); test: h5-HT7 receptor radioligand binding ([3H]5-CT)
T8 construct: expressed in transfected cells; host or cells: Chinese hamster ovary cells (membranes)
Protocol: as §1, §2

human M1 receptors = target: T9, human M1 receptors (Homo sapiens, UniProt P11229); test: hM1 receptor radioligand binding ([3H]NMS); conditions: pKi reported on a scale of 1 through 5
T9 construct: expressed in transfected cells; host or cells: Chinese hamster ovary cells (membranes)
T9 sequence (P11229 1-460): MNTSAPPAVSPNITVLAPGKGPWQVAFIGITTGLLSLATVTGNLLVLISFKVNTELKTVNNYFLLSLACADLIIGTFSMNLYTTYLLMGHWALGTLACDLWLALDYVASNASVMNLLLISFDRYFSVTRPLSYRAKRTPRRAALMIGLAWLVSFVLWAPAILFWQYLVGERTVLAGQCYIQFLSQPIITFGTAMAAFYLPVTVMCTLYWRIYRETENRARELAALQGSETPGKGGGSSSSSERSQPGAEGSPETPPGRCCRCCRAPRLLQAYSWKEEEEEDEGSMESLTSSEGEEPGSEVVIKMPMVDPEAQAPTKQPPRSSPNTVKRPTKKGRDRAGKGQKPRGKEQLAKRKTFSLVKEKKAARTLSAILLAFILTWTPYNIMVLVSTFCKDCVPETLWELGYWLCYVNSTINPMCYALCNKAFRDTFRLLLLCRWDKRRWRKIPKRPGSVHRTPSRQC
Protocol: as §1, §2

[3] = read-out: 5HT2A (pKb) (converted)
[4] = pKi reported on a scale of 1 through 5, read-out: M3 (pKi) (converted)
[5] = pKi reported on a scale of 1 through 5, read-out: 5HT7 (pKi) (converted)

T7 sequence (P35367 whole entry): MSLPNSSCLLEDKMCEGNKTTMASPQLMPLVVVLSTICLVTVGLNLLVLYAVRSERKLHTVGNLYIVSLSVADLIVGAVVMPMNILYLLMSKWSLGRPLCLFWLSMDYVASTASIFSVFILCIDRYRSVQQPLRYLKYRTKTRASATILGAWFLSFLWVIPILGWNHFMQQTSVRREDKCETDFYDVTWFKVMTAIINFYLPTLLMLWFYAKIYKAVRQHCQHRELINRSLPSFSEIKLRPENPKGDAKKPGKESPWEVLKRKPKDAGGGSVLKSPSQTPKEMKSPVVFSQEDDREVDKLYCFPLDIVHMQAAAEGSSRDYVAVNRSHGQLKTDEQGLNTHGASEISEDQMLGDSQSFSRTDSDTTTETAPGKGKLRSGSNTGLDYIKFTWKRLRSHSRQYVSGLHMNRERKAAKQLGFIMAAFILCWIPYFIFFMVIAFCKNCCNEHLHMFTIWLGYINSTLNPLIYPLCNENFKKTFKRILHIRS
T1 sequence (P14842 whole entry): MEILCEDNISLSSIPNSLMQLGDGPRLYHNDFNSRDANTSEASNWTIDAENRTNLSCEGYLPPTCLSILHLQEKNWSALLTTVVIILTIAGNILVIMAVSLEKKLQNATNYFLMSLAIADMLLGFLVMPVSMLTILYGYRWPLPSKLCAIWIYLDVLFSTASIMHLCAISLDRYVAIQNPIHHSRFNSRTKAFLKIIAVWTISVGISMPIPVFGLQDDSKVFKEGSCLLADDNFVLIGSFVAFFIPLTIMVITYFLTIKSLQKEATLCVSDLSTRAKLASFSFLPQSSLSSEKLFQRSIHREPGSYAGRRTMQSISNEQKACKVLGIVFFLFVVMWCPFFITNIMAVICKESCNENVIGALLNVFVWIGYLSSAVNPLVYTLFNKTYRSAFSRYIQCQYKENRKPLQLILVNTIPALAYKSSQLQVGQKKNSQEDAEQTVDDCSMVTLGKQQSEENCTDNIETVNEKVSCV
T3 sequence (P14416 whole entry): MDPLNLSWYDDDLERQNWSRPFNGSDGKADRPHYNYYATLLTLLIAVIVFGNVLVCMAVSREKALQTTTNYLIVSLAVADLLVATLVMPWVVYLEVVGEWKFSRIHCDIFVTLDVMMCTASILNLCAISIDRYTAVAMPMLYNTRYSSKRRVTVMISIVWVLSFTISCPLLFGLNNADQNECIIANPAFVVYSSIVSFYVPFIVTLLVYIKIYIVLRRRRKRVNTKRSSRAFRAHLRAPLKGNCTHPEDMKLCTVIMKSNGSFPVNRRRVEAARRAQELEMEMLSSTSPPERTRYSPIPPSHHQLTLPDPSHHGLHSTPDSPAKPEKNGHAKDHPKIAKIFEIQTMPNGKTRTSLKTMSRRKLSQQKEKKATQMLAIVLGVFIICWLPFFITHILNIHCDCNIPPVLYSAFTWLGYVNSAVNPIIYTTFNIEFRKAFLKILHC
T6 sequence (P20309 whole entry): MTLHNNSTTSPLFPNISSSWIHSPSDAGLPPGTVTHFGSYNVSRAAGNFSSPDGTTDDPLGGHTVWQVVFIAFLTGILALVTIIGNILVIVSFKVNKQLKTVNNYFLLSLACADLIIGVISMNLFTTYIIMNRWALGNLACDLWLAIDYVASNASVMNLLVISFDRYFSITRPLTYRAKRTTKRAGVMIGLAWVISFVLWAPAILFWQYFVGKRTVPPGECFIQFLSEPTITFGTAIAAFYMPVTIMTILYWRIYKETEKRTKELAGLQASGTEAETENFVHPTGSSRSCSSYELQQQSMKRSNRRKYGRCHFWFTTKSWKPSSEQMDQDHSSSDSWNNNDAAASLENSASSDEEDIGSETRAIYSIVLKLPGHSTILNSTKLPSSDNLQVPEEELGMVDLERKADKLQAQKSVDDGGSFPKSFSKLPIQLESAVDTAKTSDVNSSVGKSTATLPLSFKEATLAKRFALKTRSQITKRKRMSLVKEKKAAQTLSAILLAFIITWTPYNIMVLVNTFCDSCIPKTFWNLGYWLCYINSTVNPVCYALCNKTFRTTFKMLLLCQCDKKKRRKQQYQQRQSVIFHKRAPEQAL
T8 sequence (P34969 whole entry): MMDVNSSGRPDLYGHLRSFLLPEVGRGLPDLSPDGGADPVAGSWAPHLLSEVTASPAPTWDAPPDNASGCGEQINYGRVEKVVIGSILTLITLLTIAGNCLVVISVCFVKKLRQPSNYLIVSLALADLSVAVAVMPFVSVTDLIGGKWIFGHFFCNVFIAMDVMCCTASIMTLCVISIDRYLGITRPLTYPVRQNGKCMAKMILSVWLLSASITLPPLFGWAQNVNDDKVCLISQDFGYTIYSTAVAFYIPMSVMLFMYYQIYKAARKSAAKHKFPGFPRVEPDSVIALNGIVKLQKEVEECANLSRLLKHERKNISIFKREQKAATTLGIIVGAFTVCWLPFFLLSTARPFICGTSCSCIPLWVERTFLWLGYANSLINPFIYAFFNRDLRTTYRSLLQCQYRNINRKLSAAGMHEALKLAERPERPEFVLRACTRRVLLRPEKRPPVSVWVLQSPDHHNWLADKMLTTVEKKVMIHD
T2 sequence (P14416 1-414 isoform P14416-2): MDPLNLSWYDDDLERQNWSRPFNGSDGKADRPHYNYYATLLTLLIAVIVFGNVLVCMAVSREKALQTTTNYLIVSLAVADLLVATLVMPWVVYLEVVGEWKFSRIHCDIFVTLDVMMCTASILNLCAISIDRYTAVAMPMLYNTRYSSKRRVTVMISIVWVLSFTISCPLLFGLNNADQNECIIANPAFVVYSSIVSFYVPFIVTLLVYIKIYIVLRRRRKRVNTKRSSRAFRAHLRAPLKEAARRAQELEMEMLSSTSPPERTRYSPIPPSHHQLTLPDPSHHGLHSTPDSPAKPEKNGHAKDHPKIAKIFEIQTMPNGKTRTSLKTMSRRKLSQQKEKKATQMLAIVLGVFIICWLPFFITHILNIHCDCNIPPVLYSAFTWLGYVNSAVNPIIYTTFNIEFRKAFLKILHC

Row | Compound | Kb (5-HT2A receptor; [3]) | Ki [1] | Ki [2] | Ki (human 5HT1A receptors) | Ki (human 5HT2C receptors) | Ki (human M3 receptors; [4]) | Ki (human H1 receptors) | Ki (human 5HT7 receptors; [5]) | Ki (human M1 receptors) | Kb (5-HT2A receptor) | Ki (human M3 receptors) | Ki (human 5HT7 receptors)
1 | CCOC(=O)C[C@@H]1CN(C2=Nc3cc(Cl)ccc3Oc3ccccc32)CCN1 [O, (R,E)-ethyl 2-(4-(8-chlorodibenzo[b,f][1,4]oxazepin-11-yl)piperazin-2-yl)acetate] | 0.0316 to 0.0977 µM | 2.51 to 9.77 µM | 2.51 to 9.77 µM | 0.1 to 0.977 µM | 0.01 to 0.0977 µM | > 10 µM | 0.1 to 0.977 µM |  |  |  |  | 
2 | CC(C)(O)CCOC(=O)C[C@H]1CN(C2=Nc3cc(Cl)ccc3Oc3ccccc32)CCN1 [EC, (S,E)-3-hydroxy-3-methylbutyl 2-(4-(8-chlorodibenzo[b,f][1,4]oxazepin-11-yl)piperazin-2-yl)acetate] | 0.01 to 0.0309 µM | 0.631 to 2.45 µM |  | 0.01 to 0.0977 µM | 0.01 to 0.0977 µM | > 10 µM | 0.01 to 0.0977 µM | 0.631 to 1.55 µM | > 10 µM |  |  | 
3 | CC(C)(C)COC(=O)C[C@H]1CN(C2=Nc3cc(Cl)ccc3Oc3ccccc32)CCN1 [EA, (S,E)-neopentyl 2-(4-(8-chlorodibenzo[b,f][1,4]oxazepin-11-yl)piperazin-2-yl)acetate] | 0.01 to 0.0309 µM | 2.51 to 9.77 µM |  | 0.01 to 0.0977 µM | 0.01 to 0.0977 µM | > 10 µM | 0.1 to 0.977 µM | > 10 µM | 1.26 to 2.45 µM |  |  | 
4 | O=C(O)C[C@@H]1CN(C2=Nc3cc(Cl)ccc3Oc3ccccc32)CCN1 [AB, (R,E)-2-(4-(8-chlorodibenzo[b,f][1,4]oxazepin-11-yl)piperazin-2-yl)acetic acid] | 0.0316 to 0.0977 µM | > 10 µM | > 10 µM | > 10 µM | 0.1 to 0.977 µM | > 10 µM | 0.1 to 0.977 µM |  |  |  |  | 
5 | COC(=O)C[C@@H]1CN(C2=Nc3cc(Cl)ccc3Oc3ccccc32)CCN1 [Compound P, (R,E)-methyl 2-(4-(8-chlorodibenzo[b,f][1,4]oxazepin-11-yl)piperazin-2-yl)acetate] | 0.0316 to 0.0977 µM | 2.51 to 9.77 µM | 2.51 to 9.77 µM | 1 to 9.77 µM | 0.1 to 0.977 µM | > 10 µM | 0.1 to 0.977 µM |  |  |  |  | 
6 | CCOC(=O)CC1CN(C2=Nc3cc(Cl)ccc3Oc3ccccc32)CCN1C (centres unmarked) [DN, (E)-ethyl 2-(4-(8-chlorodibenzo[b,f][1,4]oxazepin-11-yl)-1-methylpiperazin-2-yl)acetate] | 0.0316 to 0.0977 µM | 2.51 to 9.77 µM | 2.51 to 9.77 µM |  | 0.1 to 0.977 µM | > 10 µM | 0.1 to 0.977 µM |  | 2.51 to 4.9 µM |  |  | 
7 | CN1CCN(C2=Nc3cc(Cl)ccc3Oc3ccccc32)C[C@@H]1CC(=O)O[C@@H]1CN2CCC1CC2 [DS, (S)-quinuclidin-3-yl 2-((S)-4-((E)-8-chlorodibenzo[b,f][1,4]oxazepin-11-yl)-1-methylpiperazin-2-yl)acetate] |  | > 10 µM |  | 1 to 9.77 µM | 1 to 9.77 µM |  |  |  |  | > 0.1 µM | > 10 µM | > 10 µM
